Columns and labels:
[1] = biological target: Sucrase-isomaltase, intestinal (Rattus norvegicus) (UniProt P23739); test: Inhibition of rat intestinal alpha-glucosidase sucrase using sucrose as substrate at 10 mg/mL preincubated for 10 mins prior substrate addition measured after 40 mins by spectrophotometry
[2] = biological target: Lysosomal alpha-glucosidase (Rattus norvegicus) (UniProt Q6P7A9); test: Inhibition of rat intestinal alpha-glucosidase maltase using maltose as substrate at 10 mg/mL preincubated for 10 mins prior substrate addition measured after 40 mins by spectrophotometry
Chain of Lysosomal alpha-glucosidase (Rattus norvegicus) (Q6P7A9 whole entry): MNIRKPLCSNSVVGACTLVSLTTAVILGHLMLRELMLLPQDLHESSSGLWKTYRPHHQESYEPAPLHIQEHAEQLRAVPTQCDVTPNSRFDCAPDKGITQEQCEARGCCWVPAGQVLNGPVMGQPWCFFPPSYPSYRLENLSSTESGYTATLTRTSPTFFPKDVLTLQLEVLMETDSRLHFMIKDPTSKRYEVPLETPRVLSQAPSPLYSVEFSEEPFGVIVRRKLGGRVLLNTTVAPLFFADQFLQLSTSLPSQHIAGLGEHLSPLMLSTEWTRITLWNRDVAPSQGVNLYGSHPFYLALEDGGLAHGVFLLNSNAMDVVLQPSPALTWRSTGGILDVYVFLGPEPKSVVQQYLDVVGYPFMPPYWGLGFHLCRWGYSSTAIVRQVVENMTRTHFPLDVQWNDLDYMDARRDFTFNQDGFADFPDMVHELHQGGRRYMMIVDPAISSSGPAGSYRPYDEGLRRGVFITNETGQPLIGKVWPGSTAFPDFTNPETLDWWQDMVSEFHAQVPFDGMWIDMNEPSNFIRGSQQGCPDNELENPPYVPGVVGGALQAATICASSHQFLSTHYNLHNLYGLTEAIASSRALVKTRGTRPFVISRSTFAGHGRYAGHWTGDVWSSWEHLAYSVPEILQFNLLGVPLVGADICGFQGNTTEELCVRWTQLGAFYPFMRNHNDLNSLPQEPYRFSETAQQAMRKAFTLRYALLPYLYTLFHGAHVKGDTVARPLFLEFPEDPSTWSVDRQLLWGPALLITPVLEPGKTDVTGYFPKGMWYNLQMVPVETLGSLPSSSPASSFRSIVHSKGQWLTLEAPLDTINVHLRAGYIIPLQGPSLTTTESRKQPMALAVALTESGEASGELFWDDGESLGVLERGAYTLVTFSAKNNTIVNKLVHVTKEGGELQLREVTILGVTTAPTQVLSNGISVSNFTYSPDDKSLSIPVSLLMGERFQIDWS

Saccharomyces cerevisiae [3] = test: Ratio of acarbose IC50 to compound IC50 for Baker's yeast Alpha-glucosidase-1
[4] = Inhibition of Baker's yeast Alpha-glucosidase-1 using p-nitrophenyl-alpha-D-glucopyranoside as substrate preincubated for 10 mins prior substrate addition measured after 20 mins by spectrophotometry; design: species or system Saccharomyces cerevisiae
Saccharomyces cerevisiae [5] = test: Inhibition of Baker's yeast Alpha-glucosidase-1 using p-nitrophenyl-alpha-D-glucopyranoside as substrate at 10 mg/mL preincubated for 10 mins prior substrate addition measured after 20 mins by spectrophotometry
Beta-galactosidase = biological target: T1, Beta-galactosidase (Homo sapiens, UniProt P16278); test: Inhibition of beta-galactosidase
T1 sequence (P16278 whole entry): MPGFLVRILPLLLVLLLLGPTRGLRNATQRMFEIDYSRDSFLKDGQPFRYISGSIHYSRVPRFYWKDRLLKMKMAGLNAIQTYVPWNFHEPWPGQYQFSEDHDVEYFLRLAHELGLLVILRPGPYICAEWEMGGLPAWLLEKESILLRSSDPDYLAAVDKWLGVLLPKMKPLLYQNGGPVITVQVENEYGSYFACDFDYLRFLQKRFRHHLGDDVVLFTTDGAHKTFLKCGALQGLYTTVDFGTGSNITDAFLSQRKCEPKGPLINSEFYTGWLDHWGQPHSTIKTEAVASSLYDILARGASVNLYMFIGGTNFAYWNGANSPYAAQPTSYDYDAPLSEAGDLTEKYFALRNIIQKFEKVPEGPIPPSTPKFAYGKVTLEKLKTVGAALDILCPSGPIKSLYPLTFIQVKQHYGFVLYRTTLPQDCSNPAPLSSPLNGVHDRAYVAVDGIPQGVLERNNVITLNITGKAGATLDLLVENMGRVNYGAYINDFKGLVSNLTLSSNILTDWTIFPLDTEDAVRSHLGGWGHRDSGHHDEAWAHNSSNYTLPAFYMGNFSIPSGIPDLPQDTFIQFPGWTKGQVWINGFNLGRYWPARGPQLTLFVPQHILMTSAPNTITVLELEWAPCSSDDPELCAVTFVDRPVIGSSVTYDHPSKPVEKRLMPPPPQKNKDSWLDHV

Chain of Sucrase-isomaltase, intestinal (Rattus norvegicus) (P23739 1-1013 limits assumed): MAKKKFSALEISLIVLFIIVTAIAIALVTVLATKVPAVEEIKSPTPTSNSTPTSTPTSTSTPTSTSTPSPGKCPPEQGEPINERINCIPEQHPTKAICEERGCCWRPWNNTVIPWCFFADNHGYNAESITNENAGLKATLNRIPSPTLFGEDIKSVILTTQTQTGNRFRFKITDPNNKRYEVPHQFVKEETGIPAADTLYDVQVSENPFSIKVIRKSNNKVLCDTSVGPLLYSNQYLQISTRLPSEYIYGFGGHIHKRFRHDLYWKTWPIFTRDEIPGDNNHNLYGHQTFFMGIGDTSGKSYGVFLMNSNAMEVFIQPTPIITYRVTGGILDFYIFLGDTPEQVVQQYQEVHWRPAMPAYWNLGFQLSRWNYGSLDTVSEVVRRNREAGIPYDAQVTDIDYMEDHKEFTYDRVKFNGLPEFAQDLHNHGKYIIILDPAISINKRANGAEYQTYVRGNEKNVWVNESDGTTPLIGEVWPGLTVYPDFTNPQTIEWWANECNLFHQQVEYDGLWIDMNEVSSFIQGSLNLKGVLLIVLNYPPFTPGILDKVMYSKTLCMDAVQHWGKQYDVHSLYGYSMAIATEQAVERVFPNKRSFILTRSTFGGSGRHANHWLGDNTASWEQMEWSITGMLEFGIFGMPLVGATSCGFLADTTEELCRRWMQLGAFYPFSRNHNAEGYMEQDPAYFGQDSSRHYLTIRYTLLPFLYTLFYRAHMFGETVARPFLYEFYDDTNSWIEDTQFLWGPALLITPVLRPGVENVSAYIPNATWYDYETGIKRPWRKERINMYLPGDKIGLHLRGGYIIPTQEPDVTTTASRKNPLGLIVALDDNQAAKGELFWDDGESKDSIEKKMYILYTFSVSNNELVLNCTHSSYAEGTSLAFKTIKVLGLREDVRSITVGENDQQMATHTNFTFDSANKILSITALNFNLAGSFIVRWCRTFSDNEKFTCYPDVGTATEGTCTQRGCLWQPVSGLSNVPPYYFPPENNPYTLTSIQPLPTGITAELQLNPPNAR
Chain of Sucrase-isomaltase, intestinal (Rattus norvegicus) (P23739 1014-1841 limits assumed): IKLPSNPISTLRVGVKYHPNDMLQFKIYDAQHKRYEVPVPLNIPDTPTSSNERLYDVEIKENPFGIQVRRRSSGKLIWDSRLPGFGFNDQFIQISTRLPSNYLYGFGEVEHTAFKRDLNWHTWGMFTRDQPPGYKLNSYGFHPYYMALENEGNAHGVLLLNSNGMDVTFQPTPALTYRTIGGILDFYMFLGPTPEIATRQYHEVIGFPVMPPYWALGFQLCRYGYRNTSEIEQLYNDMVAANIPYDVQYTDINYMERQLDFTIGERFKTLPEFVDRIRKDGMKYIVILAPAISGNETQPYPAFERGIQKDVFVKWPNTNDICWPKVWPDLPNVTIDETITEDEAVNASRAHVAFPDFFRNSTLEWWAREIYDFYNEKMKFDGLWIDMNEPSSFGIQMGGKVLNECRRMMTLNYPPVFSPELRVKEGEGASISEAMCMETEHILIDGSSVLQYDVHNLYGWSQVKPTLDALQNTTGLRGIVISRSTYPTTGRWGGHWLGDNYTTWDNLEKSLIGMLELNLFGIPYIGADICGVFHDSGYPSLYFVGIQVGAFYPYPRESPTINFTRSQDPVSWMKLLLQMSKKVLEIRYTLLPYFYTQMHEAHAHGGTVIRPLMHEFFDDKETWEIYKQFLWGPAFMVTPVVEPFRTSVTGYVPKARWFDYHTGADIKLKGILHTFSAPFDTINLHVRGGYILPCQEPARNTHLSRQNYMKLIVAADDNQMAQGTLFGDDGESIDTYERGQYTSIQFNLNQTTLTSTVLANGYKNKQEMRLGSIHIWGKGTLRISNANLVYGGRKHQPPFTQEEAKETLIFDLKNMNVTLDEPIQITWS

Row | Compound | inhibition [1] [%] | inhibition [2] [%] | Ratio IC50 (Saccharomyces cerevisiae [3]) | IC50 [4] [µM] | inhibition (Saccharomyces cerevisiae [5]) [%] | IC50 (Beta-galactosidase) [µM]
1 | O[C@@H]1[C@@H](O)[C@@H](O)C=C[C@H]1O [listing 1 of 2 here] | < 30 | < 30 | 5 |  |  | 
2 | O[C@H]1[C@@H](O)[C@@H](O)[C@@H](O)[C@@H](O)[C@@H]1O | < 30 | < 30 |  | 476 |  | 
3 | OC1[C@@H](O)[C@H](O)C[C@@H](O)[C@@H]1O (stereo not given in full) | < 30 | < 30 |  |  | < 30 | 
4 | C[C@H]1O[C@H](O[C@H]2[C@H](O)[C@@H](O)[C@@H](O[C@H]3[C@H](O)[C@@H](O)C(O)O[C@@H]3CO)O[C@@H]2CO)[C@H](O)[C@@H](O)[C@@H]1N[C@H]1C=C(CO)[C@@H](O)[C@H](O)[C@H]1O (stereo not given in full) [ACARBOSE] |  |  |  | 404 |  | 
5 | O[C@@H]1[C@@H](O)[C@@H](O)C=C[C@H]1O (relative stereo) |  |  |  |  |  | 600
6 | O[C@H]1[C@H](O)[C@H](O)[C@@H](O)[C@H](O)[C@H]1O | < 30 | < 30 |  | 1260 |  | 
7 | O[C@@H]1[C@@H](O)[C@@H](O)C=C[C@H]1O [listing 2 of 2 here] |  |  |  | 86.1 |  | 
